# Source: US20240123039A1, “DETOXIFICATION PREPARATIONS WITH REINFORCED BOOSTERS TO TREAT ALCOHOL INTOXICATION” (priority 2022, published 2024)
# Key:
# [1] = cited from earlier work; for safety of human consumption: by mouth up to 1000 mg per dose per day; for side effects of oral intake: orally, up to or more than 1000 mg per day over many years
# [2] = target: T1, alcohol dehydrogenase (ADH) (Saccharomyces cerevisiae, UniProt P00330); test: Effect of NADP concentration on alcohol dehydrogenase activity, OD340 read every minute; format: biochemical; details: for OD of samples after subtracting OD at time zero vs. Time / OD of samples vs. Time: ADH 84 U/mL, 2.5% ethanol; for OD of samples vs. Time: OD340
# T1 construct: purchased Sigma
# T1 sequence (P00330 1-348): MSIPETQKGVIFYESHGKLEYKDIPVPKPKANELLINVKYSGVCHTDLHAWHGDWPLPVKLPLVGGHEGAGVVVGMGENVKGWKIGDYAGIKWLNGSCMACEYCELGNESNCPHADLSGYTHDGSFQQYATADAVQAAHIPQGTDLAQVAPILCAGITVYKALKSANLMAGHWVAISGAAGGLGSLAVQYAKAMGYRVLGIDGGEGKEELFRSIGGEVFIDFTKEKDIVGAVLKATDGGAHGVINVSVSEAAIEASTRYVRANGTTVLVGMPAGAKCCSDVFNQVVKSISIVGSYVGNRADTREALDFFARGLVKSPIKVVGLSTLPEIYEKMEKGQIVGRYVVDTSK
# Protocol: 100% ethanol (EtOH) was purchased from VWR. Buffer used was Triz Base at 0.2 M, pH 8.2.
# The concentration of ethanol is 2.5% (v/v). And 0.28 mg/mL ADH, equivalent to 84 U/mL.
# Multiple samples were prepared as per Table 1. The assay was performed as follows: • 1. […] Place a quartz cuvette into the spectrophotometer. • 3. At time minus 10 seconds, add 0.1 mL enzyme (2 mg/mL ADH or buffer blank) to the cuvette. • 4. Mix by pipetting. Read OD340 at time zero. • 5. Read OD340 every minute for 5 minutes. 6. Repeat for remaining samples.
compound,measurement,setting,value
"NC(=O)c1ccc[n+]([C@@H]2O[C@H](COP(=O)([O-])O)[C@@H](O)[C@H]2O)c1 [NMN, Nicotinamide Mononucleotide]",safety of human consumption,[1],no ill effects
same,side effects of oral intake,[1],without any detectable undesirable side effects
"NC(=O)c1ccc[n+]([C@@H]2O[C@H](CO)[C@@H](O)[C@H]2O)c1 [NR, Nicotinamide Riboside]",safety of human consumption,[1],no ill effects
same,side effects of oral intake,[1],without any detectable undesirable side effects
Nicotinamide Adenine Dinucleotide Phosphate [NADP],OD of samples after subtracting OD at time zero vs. Time,"[2]; 0 min, NADP 8.5 mM final",0
same,OD of samples vs. Time,"[2]; 0 min, NADP 8.5 mM final",0.003
same,OD of samples after subtracting OD at time zero vs. Time,"[2]; 0 min, NADP 28 mM final",0
same,OD of samples vs. Time,"[2]; 0 min, NADP 28 mM final, listed as NADP 3x",0.749
same,OD of samples vs. Time,"[2]; 0 min, NADP 28 mM final, listed as NADP 3×",around 0.8
same,velocity of ethanol removal by ADH in the higher NADP mixture compared to the lower NADP mixture,"[2]; 28 mM vs 8.4 mM NADP, same conc of ADH",about 2 ×
same,OD of samples after subtracting OD at time zero vs. Time,"[2]; 1 min, NADP 8.5 mM final",0.059
same,OD of samples vs. Time,"[2]; 1 min, NADP 8.5 mM final",0.062
same,OD of samples vs. Time,"[2]; 1 min, NADP 28 mM final",0.860
same,OD of samples after subtracting OD at time zero vs. Time,"[2]; 2 min, NADP 8.5 mM final",0.087
same,OD of samples vs. Time,"[2]; 2 min, NADP 8.5 mM final",0.090
same,OD of samples after subtracting OD at time zero vs. Time,"[2]; 2 min, NADP 28 mM final",0.169
same,OD of samples vs. Time,"[2]; 2 min, NADP 28 mM final",0.918
same,OD of samples after subtracting OD at time zero vs. Time,"[2]; 3 min, NADP 8.5 mM final",0.098
same,OD of samples vs. Time,"[2]; 3 min, NADP 28 mM final",0.948
same,OD of samples after subtracting OD at time zero vs. Time,"[2]; 4 min, NADP 8.5 mM final",0.102
same,OD of samples vs. Time,"[2]; 4 min, NADP 28 mM final",0.963
same,OD of samples after subtracting OD at time zero vs. Time,"[2]; 5 min, NADP 28 mM final",0.223
same,OD of samples vs. Time,"[2]; 5 min, NADP 28 mM final",0.972
same,OD at higher NADP concentration compared with the lower NADP concentration,"[2]; starting at 1 minute, higher vs lower NADP concentration",higher ODs at every time point
